Values quoted from earlier work in US10307430B2, “KATP antagonists (glibenglamid) for use for promoting growth and/or treating hyperglycaemia of a premature infant” (ASSISTANCE PUBLIQUE—HOPITAUX DE PARIS, priority 2011, dated 2019).

Key:
human fetal β cells = human fetal β cells from 14 to 20 week gestational fetus (Weinhaus et al., 2003)
[1] = intravenous, first week of life, very low birth weight infants (Beardsall et al., 2007)
[2] = preterm newborn infants, when used with caution (Mitanchez, 2007; Beardsall and Dunger, 2008)
[3] = early insulin replacement, intravenous (Beardsall et al., 2008)

COC(=O)C1=C(C)NC(C)=C([N+](=O)[O-])C1c1ccccc1C(F)(F)F (stereo not shown) [BAY K8644]
insulin secretion in response to secretagogue (human fetal β cells): able to secrete insulin

[Cl-].[K+] [KCl]
insulin secretion in response to secretagogue (human fetal β cells): able to secrete insulin

Cc1cnc(C(=O)NCCc2ccc(S(=O)(=O)NC(=O)NC3CCCCC3)cc2)cn1 [glipizide]
insulin secretion in response to secretagogue (human fetal β cells): able to secrete insulin

insulin
IGF-I levels [1]: increases IGF-I levels
blood glucose control [1]: improves blood glucose control
risk of hypoglycaemia [3]: increased risk of hypoglycaemia
weight loss in the first week of life [3]: reduced weight loss
glucose control (early insulin replacement, intravenous, 194 very-low-birth-weight infants (Beardsall et al., 2008)): improved glucose control
clinical benefit (early insulin therapy, infants with very low birth weight (Beardsall et al., 2008)): no clinical benefit
endogenous glucose production [2]: efficient to reduce endogenous glucose production
